From patent US20230121086A1, “RORgT INHIBITOR, PREPARATION METHOD THEREOF AND USE THEREOF” (SUNSHINE LAKE PHARMA CO., LTD., priority 2020, published 2023)

molecular target: T1, RORγt (Homo sapiens, UniProt P51449); assay: Fluorescence resonance energy transfer (FRET) test, inhibitory activity of RORγt; format: biochemical; conditions: FRET, B-RORγt LBD / Biotin-SRC1; read-out: IC50
T1 construct: […]
T1 sequence (P51449 269-508 limits assumed): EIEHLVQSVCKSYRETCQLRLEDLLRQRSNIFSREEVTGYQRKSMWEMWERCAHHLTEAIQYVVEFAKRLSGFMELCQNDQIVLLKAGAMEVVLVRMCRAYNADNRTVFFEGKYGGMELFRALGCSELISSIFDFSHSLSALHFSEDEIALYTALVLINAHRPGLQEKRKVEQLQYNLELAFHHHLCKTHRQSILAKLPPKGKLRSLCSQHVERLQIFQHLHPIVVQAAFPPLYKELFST

Question: How did the IC50 turn out when CCS(=O)(=O)c1ccc([C@H](CC(=O)NCC(=O)OC)NC(=O)c2ccc(N3C[C@@H](Oc4ccc(C(F)(F)F)cc4)C[C@H]3COC(F)F)cc2)cc1 [Example 99, methyl 2-((S)-3-(4-((2S,4S)-2-((difluoromethoxy)methyl)-4-(4-(trifluoromethyl)phenoxy)pyrrolidin-1-yl)benzoylamino)-3-(4-(ethylsulfonyl)phenyl)propionamido)acetate] was run?
Answer: 25 nM

Question: With CCS(=O)(=O)c1ccc([C@H](CC(=O)NCC(=O)O)NC(=O)c2ccc(N3C[C@@H](Oc4ccc(C(F)(F)F)cc4)C[C@H]3COC(F)F)cc2)cc1 [Example 100, 2-((S)-3-(4-((2S,4S)-2-((difluoromethoxy)methyl)-4-(4-(trifluoromethyl)phenoxy)pyrrolidin-1-)benzoylamino)-3-(4-(ethylsulfonyl)phenyl)propionamido)acetic Acid] as the compound, how does the IC50 read?
Answer: 14 nM

Question: How did the IC50 turn out when CCS(=O)(=O)c1ccc([C@@H](NC(=O)c2ccc(N3C[C@@H](Oc4ccc(C(F)(F)F)cc4)C[C@H]3COC(F)F)cc2)C(=O)O)cc1 [Example 102, (R)-2-(4-((2S,4S)-2-((difluoromethoxy)methyl)-4-(4-(trifluoromethyl)phenoxy)pyrrolidin-1-yl)benzoylamino)-2-(4-(ethylsulfonyl)phenyl)acetic Acid] was run?
Answer: 4 nM

Question: How did the IC50 turn out when CCS(=O)(=O)c1ccc([C@H](CN(C)C)NC(=O)c2ccc(N3C[C@@H](Oc4ccc(C(F)(F)F)cc4)C[C@H]3COC(F)F)cc2)cc1 [Example 103] was run?
Answer: 60 nM

Question: For CCS(=O)(=O)c1ccc([C@H](COCCOC)NC(=O)c2ccc(N3C[C@@H](Oc4ccc(C(F)(F)F)cc4)C[C@H]3COC(F)F)cc2)cc1 [Example 104], which IC50 is on record?
Answer: 12 nM

Question: For CCS(=O)(=O)c1ccc([C@H](CCC(=O)O)NC(=O)c2ccc(N3C[C@@H](Oc4ccc(C(F)(F)F)cc4)C[C@H]3COC(F)F)cc2)cc1 [Example 105, (S)-4-(4-((2S,4S)-2-((difluoromethoxy)methyl)-4-(4-(trifluoromethyl)phenoxy)pyrrolidin-1-yl)benzoylamino)-4-(4-(ethylsulfonyl)phenyl)butyric Acid], which IC50 is on record?
Answer: 7 nM

Question: With CCS(=O)(=O)c1ccc([C@H](CCCC(=O)O)NC(=O)c2ccc(N3C[C@@H](Oc4ccc(C(F)(F)F)cc4)C[C@H]3COC(F)F)cc2)cc1 [Example 106, (S)-5-(4-((2S,4S)-2-((difluoromethoxy)methyl)-4-(4-(trifluoromethyl)phenoxy)pyrrolidin-1-yl)benzoylamino)-5-(4-(ethylsulfonyl)phenyl)valeric Acid] as the compound, how does the IC50 read?
Answer: 52 nM

Question: Which IC50 does the source give for CCOC[C@H]1CC[C@@H](c2ccc(C(F)(F)F)cc2)CN1c1ccc(C(=O)N[C@H](CC#N)c2ccc(S(=O)(=O)CC)cc2)cc1 [Example 108-2, N—((R)-2-cyano-1-(4-(ethylsulfonyl)phenyl)ethyl)-4-((2R,5S)-2-(ethoxymethyl)-5-(4-(trifluoromethyl)phenyl)piperidin-1-yl)benzamide] here?
Answer: 24 nM

Question: How did the IC50 turn out when CCS(=O)(=O)c1ccc([C@@H](CC#N)NC(=O)c2ccc(N3C[C@@H](c4ccc(C(F)(F)F)cc4)CC[C@H]3COCC3CC3)cc2)cc1 [Example 109-1, N—((R)-2-cyano-1-(4-(ethylsulfonyl)phenyl)ethyl)-4-((2S,5R)-2-((cyclopropylmethoxy)methyl)-5-(4-(trifluoromethyl)phenyl)piperidin-1-yl)benzamide] was run?
Answer: 7 nM

Question: With CCC(F)(F)OC[C@@H]1CC[C@H](c2ccc(C(F)(F)F)cc2)CN1c1ccc(C(=O)N[C@H](CC#N)c2ccc(S(=O)(=O)CC)cc2)cc1 [Example 110-1, N—((R)-2-cyano-1-(4-(ethylsulfonyl)phenyl)ethyl)-4-((2S,5R)-2-((1,1-difluoropropoxy)methyl)-5-(4-(trifluoromethyl)phenyl)piperidin-1-yl)benzamide] as the compound, how does the IC50 read?
Answer: 19 nM

Question: With CCC(F)(F)OC[C@H]1CC[C@@H](c2ccc(C(F)(F)F)cc2)CN1c1ccc(C(=O)N[C@H](CC#N)c2ccc(S(=O)(=O)CC)cc2)cc1 [Example 110-2, N—((R)-2-cyano-1-(4-(ethylsulfonyl)phenyl)ethyl)-4-((2R,5S)-2-((1,1-difluoropropoxy)methyl)-5-(4-(trifluoromethyl)phenyl)piperidin-1-yl)benzamide] as the compound, how does the IC50 read?
Answer: 7 nM

Question: How did the IC50 turn out when CCS(=O)(=O)c1ccc([C@H](CC#N)NC(=O)c2ccc(N3C[C@H](c4ccc(C(F)(F)F)cc4)CC[C@H]3COC(F)F)cc2F)cc1 [Example 111-1, N—((S)-2-cyano-1-(4-(ethylsulfonyl)phenyl)ethyl)-4-((2S,5S)-2-((difluoromethoxy)methyl)-5-(4-(trifluoromethyl)phenyl)piperidin-1-yl)-2-fluorobenzamide] was run?
Answer: 16 nM

Question: Which IC50 does the source give for CCS(=O)(=O)c1ccc([C@H](CC#N)NC(=O)c2ccc(N3C[C@@H](c4ccc(C(F)(F)F)cc4)CC[C@H]3COC(F)F)c(F)c2)cc1 [Example 113-2, N—((S)-2-cyano-1-(4-(ethylsulfonyl)phenyl)ethyl)-4-((2S,5R)-2-((difluoromethoxy)methyl)-5-(4-(trifluoromethyl)phenyl)piperidin-1-yl)-3-fluorobenzamide] here?
Answer: 13 nM

Question: How did the IC50 turn out when CCS(=O)(=O)c1ccc([C@H](CC#N)NC(=O)c2ccc(N3C[C@@H](c4ccc(F)cc4)CC[C@H]3COC(F)F)cc2)cc1 [Example 114-2, N—((S)-2-cyano-1-(4-(ethylsulfonyl)phenyl)ethyl)-4-((2S,5R)-2-((difluoromethoxy)methyl)-5-(4-fluorophenyl)piperidin-1-yl)benzamide] was run?
Answer: 23 nM

Question: For CCS(=O)(=O)c1ccc([C@H](CC#N)NC(=O)c2ccc(N3C[C@H](c4ccccc4)CC[C@H]3COC(F)F)cc2)cc1 [Example 115-2, N—((S)-2-cyano-1-(4-(ethylsulfonyl)phenyl)ethyl)-4-((2S,5S)-2-((difluoromethoxy)methyl)-5-phenylpiperidin-1-yl)benzamide], which IC50 is on record?
Answer: 26 nM

Question: How did the IC50 turn out when CCS(=O)(=O)c1ccc([C@H](CC#N)NC(=O)c2ccc(N3C[C@H](N4CCC(C(F)(F)F)CC4)CC[C@H]3COC(F)F)cc2)cc1 [Example 117-2, N—((S)-2-cyano-1-(4-(ethylsulfonyl)phenyl)ethyl)-4-((3′R,6′S)-6′-((difluoromethoxy)methyl)-4-(trifluoromethyl)-(1,3′-bipiperidin)-1′-yl)benzamide] was run?
Answer: 26 nM

Question: Which IC50 does the source give for CCS(=O)(=O)c1ccc([C@H](CC#N)NC(=O)c2ccc(N3C[C@H](O)C[C@H]3COC(F)F)cc2)cc1 [Example 131, N—((S)-2-cyano-1-(4-(ethylsulfonyl)phenyl)ethyl)-4-((2S,4R) ((difluoromethoxy)methyl)-4-hydroxypyrrolidin-1-yl)benzamide] here?
Answer: 120 nM

Question: For CCS(=O)(=O)c1ccc([C@H](CC#N)NC(=O)c2ccc(C(O)(C(F)(F)F)C(F)(F)F)cc2)cc1 [Example 143, (S)—N-(2-cyano-1-(4-(ethylsulfonyl)phenyl)ethyl)-4-(1,1,1,3,3,3-hexafluoro-2-hydroxypropan-2-yl)benzamide], which IC50 is on record?
Answer: 104 nM

Question: How did the IC50 turn out when CCS(=O)(=O)c1ccc([C@H](CNC(=O)OC)NC(=O)c2ccc(N3C[C@@H](Oc4ccc(C(F)(F)F)cc4)C[C@H]3COC(F)F)cc2)cc1 [Example 147, methyl ((R)-2-(4-((2S,4S)-2-((difluoromethoxy)methyl)-4-(4-(trifluoromethyl)phenoxy)pyrrolidin-1-yl)benzoylamino)-2-(4-(ethylsulfonyl)phenyl)ethyl)carbamate] was run?
Answer: 18.2 nM

Question: With CCS(=O)(=O)c1ccc([C@H](CNC=O)NC(=O)c2ccc(N3C[C@@H](Oc4ccc(C(F)(F)F)cc4)C[C@H]3COC(F)F)cc2)cc1 [Example 148] as the compound, how does the IC50 read?
Answer: 15.2 nM

Question: With CCS(=O)(=O)c1ccc([C@H](COC(N)=O)NC(=O)c2ccc(N3C[C@@H](Oc4ccc(C(F)(F)F)cc4)C[C@H]3COC(F)F)cc2)cc1 [Example 149, (R)-2-(4-((2S,4S)-2-((difluoromethoxy)methyl)-4-(4-(trifluoromethyl)phenoxy)pyrrolidin-1-yl)benzoylamino)-2-(4-(ethylsulfonyl)phenyl)ethyl carbamate] as the compound, how does the IC50 read?
Answer: 7.7 nM

Question: How did the IC50 turn out when CCS(=O)(=O)c1ccc([C@H](COC(=O)NC)NC(=O)c2ccc(N3C[C@@H](Oc4ccc(C(F)(F)F)cc4)C[C@H]3COC(F)F)cc2)cc1 [Example 150, (R)-2-(4-((2S,4S)-2-((difluoromethoxy)methyl)-4-(4-(trifluoromethyl)phenoxy)pyrrolidin-1-yl)benzoylamino)-2-(4-(ethylsulfonyl)phenyl)ethyl methylcarbamate] was run?
Answer: 10 nM

Question: How did the IC50 turn out when [2H]C([2H])([2H])OC[C@@H]1C[C@H](Oc2ccc(C(F)(F)F)cc2)CN1c1ccc(C(=O)N[C@@H](CC#N)c2ccc(S(=O)(=O)CC)cc2)cc1 [Example 151, N—((S)-2-cyano-1-(4-(ethylsulfonyl)phenyl)ethyl)-4-((2S,4S)-2-((3,3,3-d3-methoxy)methyl)-4-(4-(trifluoromethyl)phenoxy)pyrrolidin-1-yl)benzamide] was run?
Answer: 8.7 nM

Question: Which IC50 does the source give for CCS(=O)(=O)c1ccc([C@H](CC#N)NC(=O)c2ccc(N3C[C@@H](Oc4ccc(-n5cccn5)cc4)C[C@H]3COC(F)F)cc2)cc1 [Example 152, 4-((2S,4S)-4-(4-(1H-pyrazol-1-yl)phenoxy)-2-((difluoromethoxy)methyl)pyrrolidin-1-yl)-N—((S)-2-cyano-1-(4-(ethylsulfonyl)phenyl)ethyl)benzamide] here?
Answer: 13.2 nM

Question: For CCS(=O)(=O)c1ccc([C@H](COC(N)=O)NC(=O)c2ccc(N3C[C@@H](Oc4ccc(Cl)cn4)C[C@H]3COC(F)F)cc2)cc1 [Example 153, (R)-2-(4-((2S,4S)-4-((5-chloropyridin-2-yl)oxy)-2-((difluoromethoxy)methyl)pyrrolidin-1-yl)benzoylamino)-2-(4-(ethylsulfonyl)phenyl)ethyl carbamate], which IC50 is on record?
Answer: 5 nM

Question: How did the IC50 turn out when CCS(=O)(=O)c1ccc([C@H](COC(=O)N(C)C)NC(=O)c2ccc(N3C[C@@H](Oc4ccc(C(F)(F)F)cc4)C[C@H]3COC(F)F)cc2)cc1 [Example 154, (R)-2-(4-((2S,4S)-2-((difluoromethoxy)methyl)-4-(4-(trifluoromethyl)phenoxy)pyrrolidin-1-yl)benzoylamino)-2-(4-(ethylsulfonyl)phenyl)ethyl dimethylcarbamate] was run?
Answer: 47 nM
